In ChEMBL document CHEMBL5104163, “Modulation of key antioxidant enzymes and cell cycle arrest as a possible antifungal mode of action of cinnamaldehyde based azole derivative” (2022):
≈ marks a conversion by molar mass, not a printed value. Calls of active or inactive are those of the source. The rule behind the calls is not given here.

Assays:
[Candida] auris [1] = Induction of oxidative stress in Candida auris MRL6057 incubated for 2 hrs and assessed as upregulation of CATA mRNA expression measured by RT-qPCR analysis; assay type: functional, organism-based; details: Candidozyma auris
[Candida] auris [2] = Induction of oxidative stress in Candida auris MRL6057 incubated for 2 hrs assessed as increase in GPx activity; assay type: functional, organism-based; details: Candidozyma auris
[Candida] auris [3] = Induction of cell cycle arrest in Candida auris MRL6057 cells assessed as cell population at G0/G1 phase at MIC measured by Muse cell analyzer; assay type: functional, Candidozyma auris
[Candida] auris [4] = Induction of oxidative stress in Candida auris MRL6057 incubated for 2 hrs and assessed as upregulation of SOD4 mRNA expression measured by RT-qPCR analysis; assay type: functional, organism-based; details: Candidozyma auris
[Candida] auris [5] = Induction of oxidative stress in Candida auris MRL6057 incubated for 2 hrs assessed as decrease in GLR activity; assay type: functional, organism-based; details: Candidozyma auris
Candida albicans = experiment: Antifungal activity against Candida albicans assessed as dead cells; assay type: functional
[Candida] auris [6] = Antifungal activity against Candida auris MRL6057; assay type: functional; details: Candidozyma auris
[Candida] auris [7] = Antifungal activity against Candida auris MRL6057 assessed as dead cells at 0.49 ug/ml; assay type: functional, Candidozyma auris; details: dose 0.49 µg/ml
[Candida] auris [8] = Induction of oxidative stress in Candida auris MRL6057 incubated for 2 hrs assessed as decrease in GST activity; assay type: functional, organism-based; details: Candidozyma auris
[Candida] auris [9] = Induction of oxidative stress in Candida auris MRL6057 incubated for 2 hrs and assessed as upregulation of GPx3 mRNA expression measured by RT-qPCR analysis; assay type: functional, organism-based; details: Candidozyma auris
[Candida] auris [10] = Antifungal activity against Candida auris MRL6057 assessed as dead cells at 0.98 ug/ml; assay type: functional, Candidozyma auris; details: dose 0.98 µg/ml
[Candida] auris [11] = Induction of cell cycle arrest in Candida auris MRL6057 cells assessed as cell population at G0/G1 phase at 0.5xMIC measured by Muse cell analyzer; assay type: functional, Candidozyma auris
[Candida] auris [12] = Induction of cell cycle arrest in Candida auris MRL6057 cells assessed as cell population at S phase at 0.5xMIC measured by Muse cell analyzer; assay type: functional, Candidozyma auris
[Candida] auris [13] = Induction of oxidative stress in Candida auris MRL6057 incubated for 2 hrs assessed as increase in SOD activity; assay type: functional, organism-based; details: Candidozyma auris
[Candida] auris [14] = Induction of oxidative stress in Candida auris MRL6057 incubated for 2 hrs assessed as increase in CAT activity; assay type: functional, organism-based; details: Candidozyma auris
[Candida] auris [15] = Induction of oxidative stress in Candida auris MRL6057 incubated for 2 hrs and assessed as increase in LPO activity; assay type: functional, organism-based; details: Candidozyma auris
[Candida] auris [16] = Induction of cell cycle arrest in Candida auris MRL6057 cells assessed as cell population at S phase at MIC measured by Muse cell analyzer; assay type: functional, Candidozyma auris
[Candida] auris [17] = Induction of oxidative stress in Candida auris MRL6057 incubated for 2 hrs and assessed as downregulation of GSHR mRNA expression measured by RT-qPCR analysis; assay type: functional, organism-based; details: Candidozyma auris
[Candida] auris [18] = Antifungal activity against Candida auris MRL6057 assessed as dead cells at 1.96 ug/ml; assay type: functional, Candidozyma auris; details: dose 1.96 µg/ml
[Candida] auris [19] = Induction of cell cycle arrest in Candida auris MRL6057 cells assessed as cell population at G2/M phase at MIC measured by Muse cell analyzer; assay type: functional, Candidozyma auris
[Candida] auris [20] = Induction of cell cycle arrest in Candida auris MRL6057 cells assessed as cell population at G2/M phase at 0.5xMIC measured by Muse cell analyzer; assay type: functional, Candidozyma auris
[Candida] auris [21] = Induction of oxidative stress in Candida auris MRL6057 incubated for 2 hrs and assessed as downregulation of GST1 mRNA expression measured by RT-qPCR analysis; assay type: functional, organism-based; details: Candidozyma auris
[Candida] auris [22] = Antifungal activity against clinical strain Candida auris; assay type: functional; details: Candidozyma auris

O=C(Cn1nnc(/C=C/c2ccccc2)n1)N/N=C/c1ccc([N+](=O)[O-])cc1
Activity ([Candida] auris [1]): Active | Activity ([Candida] auris [2]): Active | Activity ([Candida] auris [3]): 2.3% | Activity ([Candida] auris [4]): Active | Activity ([Candida] auris [5]): Active | Activity (Candida albicans): 75% | MFC ([Candida] auris [6]): 1.96 µg/mL (≈ 5.19 µM) | MIC ([Candida] auris [6]): 0.98 µg/mL (≈ 2.6 µM) | Activity ([Candida] auris [7]): 69.2% | Activity ([Candida] auris [8]): Active | Activity ([Candida] auris [9]): Active | Activity ([Candida] auris [10]): 83.1% | Activity ([Candida] auris [11]): 48.2% | Activity ([Candida] auris [12]): 44.5% | Activity ([Candida] auris [13]): Active | Activity ([Candida] auris [14]): Active | Activity ([Candida] auris [15]): Active | Activity ([Candida] auris [16]): 49.3% | Activity ([Candida] auris [17]): Active | Activity ([Candida] auris [18]): 99.9% | Activity ([Candida] auris [19]): 48.3% | Activity ([Candida] auris [20]): 7.2% | Activity ([Candida] auris [21]): Active

C[C@@H]1[C@H](O)[C@@H](C)/C=C/C=C/C=C/C=C/C=C/C=C/C=C/[C@H](O[C@@H]2O[C@H](C)[C@@H](O)[C@H](N)[C@@H]2O)C[C@@H]2O[C@](O)(C[C@@H](O)C[C@@H](O)[C@H](O)CC[C@@H](O)C[C@@H](O)CC(=O)O[C@H]1C)C[C@H](O)[C@H]2C(=O)O [AMPHOTERICIN B]
MFC ([Candida] auris [6]): 8 µg/mL (≈ 8.66 µM) | MIC ([Candida] auris [6]): 4 µg/mL (≈ 4.33 µM) | MIC ([Candida] auris [22]): ≥ 2 µg/mL
